In US5288709A, “Erythromycin derivatives” (priority 1991, dated 1994):
In brackets after ≈: the same amount, converted by molar mass. Like-named read-outs stand apart in the source and are kept apart here.

Legend:
[1] = tested on: Staphylococcus aureus CMX 686B; test: In-vitro antimicrobial activity primary screen (agar dilution MIC); type: cell-based; settings: CMX686B, BHI agar, 20-24 h, read-out: MIC
How it was run: (§1)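 Agar dilution in Brain Heart Infusion agar with twelve successive compound dilutions; plates inoculated with 1:100 diluted cultures by replicator and incubated 20-24 h at 35-37 °C. MIC is the lowest concentration giving no growth, slight haze or sparse isolated colonies versus compound-free control; erythromycin A plate run as reference.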

[2] = tested on: Staphylococcus aureus CMX 503A; test: as above; type: cell-based; settings: Staphylococcus aureus, CMX503A, 24 h, BHI agar, 20-24 h, read-out: MIC
How it was run: as §1

[3] = tested on: Staphylococcus aureus CMX 553; test: as above; type: cell-based; settings: Staphylococcus aureus, CMX553, 24 h, BHI agar, 20-24 h, read-out: MIC
How it was run: as §1

Escherichia coli H560 = test: as above; type: cell-based; settings: Escherichia coli H560; BHI agar, 20-24 h; read-out: MIC
How it was run: (§2)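 Each strain was applied with a Steers replicator block to agar plates containing graded test compound, using 1:100 inocula, or 1:10 where growth was slow, as with Streptococcus. Plates were incubated for 20-24 hours at 35-37° C. A reference antibiotic of the same class was run alongside.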

Pseudomonas cepacia 2961 = test: as above; type: cell-based; settings: Burkholderia cepacia, BHI agar, 20-24 h, read-out: MIC
How it was run: as §2

[4] = tested on: Streptococcus bovis A5169; test: as above; type: cell-based; settings: Streptococcus equinus, BHI agar, 20-24 h, read-out: MIC
How it was run: as §2

Staphylococcus aureus 45 = test: as above; type: cell-based; settings: BHI agar, 20-24 h, read-out: MIC
How it was run: as §2

[5] = tested on: Pseudomonas aeruginosa BMH10; test: as above; type: cell-based; settings: Pseudomonas aeruginosa, BMH10, 24 h, BHI agar, 20-24 h
How it was run: as §2

[6] = tested on: Streptococcus pyrogenes 2548 INDUC; test: as above; type: cell-based; settings: BHI agar, 20-24 h, read-out: MIC
How it was run: as §2

[7] = tested on: Enterococcus faecium ATCC 8043; test: as above; type: cell-based; settings: Enterococcus faecium, ATCC8043, 24 h
How it was run: as §2

[8] = tested on: Micrococcus luteus ATCC 4698; test: as above; type: cell-based; settings: ATCC4698, BHI agar, 20-24 h, read-out: MIC
How it was run: as §2

[9] = tested on: Enterobacter aerogenes ATCC 13048; test: as above; type: cell-based; settings: Klebsiella aerogenes, ATCC13048, 24 h, Enterobacter aerogenes ATCC 13048; BHI agar, 20-24 h
How it was run: as §2

Escherichia coli JUHL = test: as above; type: cell-based; settings: Escherichia coli, 24 h
How it was run: as §2

[10] = tested on: Staphylococcus aureus A5177; test: as above; type: cell-based; settings: Staphylococcus aureus A5177; BHI agar, 20-24 h; read-out: MIC
How it was run: as §2

[11] = tested on: Staphylococcus aureus ATCC 6538P; test: as above; type: cell-based; settings: Staphylococcus aureus, ATCC6538P, 24 h, BHI agar, 20-24 h
How it was run: as §2

Acinetobacter SP CMX 669 = test: as above; type: cell-based; settings: SPCMX669; Acinetobacter SP CMX 669; BHI agar, 20-24 h; read-out: MIC
How it was run: as §2

[12] = tested on: Staphylococcus aureus 45 RAR2; test: as above; type: cell-based; settings: Staphylococcus aureus, 45RAR2, 24 h, BHI agar, 20-24 h
How it was run: as §2

Escherichia coli SS = test: as above; type: cell-based; settings: BHI agar, 20-24 h, read-out: MIC
How it was run: as §2

[13] = tested on: Pseudomonas aeruginosa K799/61; test: as above; type: cell-based; settings: Pseudomonas aeruginosa K799/61; BHI agar, 20-24 h; read-out: MIC
How it was run: as §2

[14] = tested on: Streptococcus pyrogenes EES61; test: as above; type: cell-based; settings: BHI agar, 20-24 h, read-out: MIC
How it was run: as §2

[15] = tested on: Staphylococcus epidermidis 3519; test: as above; type: cell-based; settings: BHI agar, 20-24 h, read-out: MIC
How it was run: as §2

[16] = tested on: Micrococcus luteus ATCC 9341; test: as above; type: cell-based; settings: ATCC9341, BHI agar, 20-24 h, read-out: MIC
How it was run: as §2

[17] = tested on: Pseudomonas aeruginosa A5007; test: as above; type: cell-based; settings: Pseudomonas aeruginosa A5007; BHI agar, 20-24 h; read-out: MIC
How it was run: as §2

Escherichia coli DC-2 = test: as above; type: cell-based; settings: DC2; Escherichia coli DC-2; BHI agar, 20-24 h; read-out: MIC
How it was run: as §2

[18] = tested on: Pseudomonas aeruginosa K799/WT; test: as above; type: cell-based; settings: Pseudomonas aeruginosa K799/WT; BHI agar, 20-24 h; read-out: MIC
How it was run: as §2

[19] = tested on: Providencia stuartii CMX 640; test: as above; type: cell-based; settings: CMX640; Providencia stuartii CMX 640; BHI agar, 20-24 h; read-out: MIC
How it was run: as §2

[20] = tested on: Streptococcus agalactiae CMX 508; test: as above; type: cell-based; settings: CMX508, BHI agar, 20-24 h, read-out: MIC
How it was run: as §2

[21] = tested on: Staphylococcus aureus (NCTC 10649); test: In-vivo acute mouse protection assay; set-up: species or system Staphylococcus aureus; female Swiss albino mice; settings: Staphylococcus aureus, NCTC10649, sc, 168 h; subcutaneous; dosed 1 and 5 h post-infection, observed 7 days; read-out: ED50
Description: (§3) An acute mouse protection test was conducted on ten mice with each of three concentrations of selected compounds of the invention. Each concentration was a four-fold dilution of the previous concentration. The initial concentration will vary with the microorganism with which the mouse is challenged.
(§4) The acute mouse protection test was conducted on female, Swiss albino mice, 18-20 grams in weight. […] To check the potency of the inoculum, a titration of the indicated test organism was carried out in control animals. The titration determines the LD50 for a particular microorganism. The treatment groups of animals were dosed orally, by gavage, or subcutaneously with the test compounds at 1 and 5 hours post-infection and observed for 7 days. The ED50 were calculated using the mortality data collected.

[22] = tested on: Streptococcus pyogenes C-203; test: In-vivo acute mouse protection assay; set-up: species or system Streptococcus pyogenes; female Swiss albino mice; settings: dosed 1 and 5 h post-infection, observed 7 days
Description: as §3, §4

[23] = tested on: Streptococcus pneumoniae (ATCC 6303); test: In-vivo acute mouse protection assay; set-up: species or system Streptococcus pneumoniae; female Swiss albino mice; settings: dosed 1 and 5 h post-infection, observed 7 days
Description: as §3, §4

`CC[C@H]1OC(=O)[C@H](C)[C@@H](O[C@H]2C[C@@](C)(OC)[C@@H](N)[C@H](C)O2)[C@H](C)[C@@H](O[C@@H]2O[C@H](C)C[C@H](N(C)C)[C@H]2O)[C@](C)(O)C[C@@H](C)[C@@H]2O[C@@]1(C)[C@@H](O)[C@H]2C` [Example 15, (4"S,9S,11S)-4"-Amino-9-deoxo-4",12-dideoxy-9,12-epoxyerythromycin A] gave an MIC [1] of 0.39 mg/L (≈ 0.544 µM), an MIC [2] of 0.39 mg/L (≈ 0.544 µM) and an MIC [3] of 0.2 mg/L (≈ 0.279 µM). The MIC (Escherichia coli H560) was 3.1 mg/L (≈ 4.32 µM), the MIC (Pseudomonas cepacia 2961) was > 100 mg/L and the MIC [4] was 0.01 mg/L (≈ 0.0139 µM). The MIC (Staphylococcus aureus 45) was 0.39 mg/L (≈ 0.544 µM), the MIC [5] was 50 mg/L (≈ 69.7 µM) and the MIC [6] was 6.2 mg/L (≈ 8.65 µM). The MIC [7] was 0.1 mg/L (≈ 0.139 µM), the MIC [8] was 0.05 mg/L (≈ 0.0697 µM) and the MIC [9] was 50 mg/L (≈ 69.7 µM). The MIC (Escherichia coli JUHL) was 12.5 mg/L (≈ 17.4 µM), the MIC [10] was 1.56 mg/L (≈ 2.18 µM) and the MIC [11] was 0.39 mg/L (≈ 0.544 µM). It also gave an MIC (Acinetobacter SP CMX 669) of 6.2 mg/L (≈ 8.65 µM), an MIC [12] of 0.39 mg/L (≈ 0.544 µM) and an MIC (Escherichia coli SS) of 0.1 mg/L (≈ 0.139 µM). For the same molecule, the MIC [13] was 0.78 mg/L (≈ 1.09 µM), the MIC [14] was 0.02 mg/L (≈ 0.0279 µM) and the MIC [15] was 0.2 mg/L (≈ 0.279 µM). The MIC [16] was 0.01 mg/L (≈ 0.0139 µM), the MIC [17] was > 100 mg/L and the MIC (Escherichia coli DC-2) was 6.2 mg/L (≈ 8.65 µM). The MIC [18] was 100 mg/L (≈ 139 µM), the MIC [19] was > 100 mg/L and the MIC [20] was 0.02 mg/L (≈ 0.0279 µM). For the same molecule, the ED50 [21] was 30.1 mg/kg, the ED50 ([22]; C203, 168 h, oral) was 47.9 mg/kg and the ED50 ([22]; C203, sc, 168 h, subcutaneous) was 5 mg/kg. For the same molecule, the ED50 ([23]; ATCC6303, 168 h, oral, read-out: ED50) was 37.3 mg/kg and the ED50 ([23]; ATCC6303, sc, 168 h, subcutaneous) was 4 mg/kg.
